Patent publication US20110224208A1, “NOVEL INHIBITORS OF FLAVIVIRUS REPLICATION” (KATHOLIEKE UNIVERSITEIT LEUVEN, K.U. LEUVEN R&D, priority 2008, published 2011)
Values after ≈ are worked out from the molar mass of the structure shown.

Each molecule was assayed on HCV replicon I389luc-ubi-neo/NS3-3'/5.1 (assay: Anti-HCV replicon assay (luciferase activity) in Huh-5-2 cells). Settings: Hepatitis C virus, Huh-5-2, 72 h, concentration required to inhibit luciferase activity in the replicon system by 50%.
Assay type: cell-based, Hepatitis C virus
Method: Cells were seeded at a density of 7000 cells per well in 96 well View Plate™ (Packard) in medium containing the same components as described above, except for G418. Cells were allowed to adhere and proliferate for 24 hr. At that time, culture medium was removed and serial dilutions of the test compounds were added in culture medium lacking G418. Interferon alfa 2a (500 IU) was included as a positive control. Plates were further incubated at 37° C. and 5% CO2 for 72 hours. Replication of the HCV replicon in Huh-5 cells results in luciferase activity in the cells. Luciferase activity is measured by adding 50 μl of 1×Glo-lysis buffer (Promega) for 15 minutes followed by 50 ul of the Steady-Glo Luciferase assay reagent (Promega). Luciferase activity is measured with a luminometer and the signal in each individual well is expressed as a percentage of the untreated cultures. […] Instead the density of the culture is measured by means of the MTS method (Promega).

Row | Compound | IC50 [mg/L]
1 | COCCN1C(=O)c2c(C)cccc2C(C(=O)Nc2cccc(OC)c2)C1c1cccs1 (stereo not drawn) [C42, 2-(2-Methoxyethyl)-N-(3-methoxyphenyl)-8-methyl-1-oxo-3-(thiophen-2-yl)-1,2,3,4-tetrahydroisoquinoline-4-carboxamide] | 0.5 (≈ 1.11 µM)
2 | COCCN1C(=O)c2ccccc2C(C(=O)Nc2ccc(Oc3ccccc3)nc2)C1c1cccs1 (stereo not drawn) [C158, 2-(2-methoxyethyl)-1-oxo-N-(6-phenoxypyridin-3-yl)-3-(thiophen-2-yl)-1,2,3,4-tetrahydroisoquinoline-4-carboxamide] | 0.04 (≈ 0.0801 µM)
3 | COCCN1C(=O)c2cc(Cl)ccc2C(C(=O)Nc2cccc(OC)c2)C1c1cccs1 (stereo not drawn) [C43, 7-Chloro-2-(2-methoxyethyl)-N-(3-methoxyphenyl)-1-oxo-3-(thiophen-2-yl)-1,2,3,4-tetrahydroisoquinoline-4-carboxamide] | 0.3 (≈ 0.637 µM)
4 | COCCN1C(=O)c2ccccc2C(C(=O)Nc2cc(-c3ccccc3)[nH]n2)C1c1cccs1 (stereo not drawn) [C182, 2-(2-methoxyethyl)-1-oxo-N-(5-phenyl-1H-pyrazol-3-yl)-3-(thiophen-2-yl)-1,2,3,4-tetrahydroisoquinoline-4-carboxamide] | 21.8 (≈ 46.1 µM)
5 | COCCN1C(=O)c2ccccc2C(C(=O)Nc2cccc(OC)c2)C1C#N (stereo not drawn) [C143, 3-cyano-2-(2-methoxyethyl)-N-(3-methoxyphenyl)-1-oxo-1,2,3,4-tetrahydroisoquinoline-4-carboxamide] | 24.3 (≈ 64 µM)
6 | COCCN1C(=O)c2ccccc2C(C(=O)Nc2ccc3occc3c2)C1c1cccs1 (stereo not drawn) [C195, N-(benzofuran-5-yl)-2-(2-methoxyethyl)-1-oxo-3-(thiophen-2-yl)-1,2,3,4-tetrahydroisoquinoline-4-carboxamide] | 0.13 (≈ 0.291 µM)
7 | COCCN1C(=O)c2ccccc2C(C(=O)Nc2ccc(Cl)cc2N)C1c1cccs1 (stereo not drawn) [C144, N-(2-amino-4-chlorophenyl)-2-(2-methoxyethyl)-1-oxo-3-(thiophen-2-yl)-1,2,3,4-tetrahydroisoquinoline-4-carboxamide] | 5.16 (≈ 11.3 µM)
8 | COCCN1C(=O)c2ccccc2C(C(=O)Nc2ccc3nccnc3c2)C1c1cccs1 (stereo not drawn) [C171, 2-(2-methoxyethyl)-1-oxo-N-(quinoxalin-6-yl)-3-(thiophen-2-yl)-1,2,3,4-tetrahydroisoquinoline-4-carboxamide] | 0.12 (≈ 0.262 µM)
9 | CCC1C(C(=O)Nc2cccc(OC)c2)c2ccccc2C(=O)N1CCOC (stereo not drawn) [C58, 3-Ethyl-2-(2-methoxyethyl)-N-(3-methoxyphenyl)-1-oxo-1,2,3,4-tetrahydroisoquinoline-4-carboxamide] | 1.81 (≈ 4.73 µM)
10 | COCCN1C(=O)c2ccccc2C(C(=O)Nc2cc(C)nn2C)C1c1cccs1 (stereo not drawn) [C109, N-(1,3-dimethyl-1H-pyrazol-5-yl)-2-(2-methoxyethyl)-1-oxo-3-(thiophen-2-yl)-1,2,3,4-tetrahydroisoquinoline-4-carboxamide] | 43.4 (≈ 102 µM)
11 | COCCN1C(=O)c2ccccc2C(C(=O)Nc2ccc(CN3CCOCC3)cc2)C1c1cccs1 (stereo not drawn) [C188, 2-(2-methoxyethyl)-N-(4-(morpholinomethyl)phenyl)-1-oxo-3-(thiophen-2-yl)-1,2,3,4-tetrahydroisoquinoline-4-carboxamide] | 0.1 (≈ 0.198 µM)
12 | COCCN1C(=O)c2cc(I)ccc2C(C(=O)Nc2cccc(OC)c2)C1c1cccs1 (stereo not drawn) [C56, 7-Iodo-2-(2-methoxyethyl)-N-(3-methoxyphenyl)-1-oxo-3-(thiophen-2-yl)-1,2,3,4-tetrahydroisoquinoline-4-carboxamide] | 0.98 (≈ 1.74 µM)
13 | COCCN1C(=O)c2ccccc2C(C(=O)Nc2cccc(OC)c2)C1c1ccnn1C (stereo not drawn) [C105, 2-(2-methoxyethyl)-N-(3-methoxyphenyl)-3-(1-methyl-1H-pyrazol-5-yl)-1-oxo-1,2,3,4-tetrahydroisoquinoline-4-carboxamide] | 50.5 (≈ 116 µM)
14 | COCCN1C(=O)c2ccc(C)cc2C(C(=O)Nc2cccc(OC)c2)C1c1cccs1 (stereo not drawn) [C40, 2-(2-Methoxyethyl)-N-(3-methoxyphenyl)-6-methyl-1-oxo-3-(thiophen-2-yl)-1,2,3,4-tetrahydroisoquinoline-4-carboxamide] | 7.76 (≈ 17.2 µM)
15 | COCCN1C(=O)c2ccccc2C(C(=O)NCCOc2ccccc2)C1c1cccs1 (stereo not drawn) [C34, 2-(2-Methoxyethyl)-1-oxo-N-(2-phenoxyethyl)-3-(thiophen-2-yl)-1,2,3,4-tetrahydroisoquinoline-4-carboxamide] | 16.5 (≈ 36.7 µM)
16 | COCCN1C(=O)c2ccccc2C(C(=O)Nc2ccc(OC(F)(F)F)cc2)C1c1cccs1 (stereo not drawn) [C113, 2-(2-methoxyethyl)-1-oxo-3-(thiophen-2-yl)-N-(4-(trifluoromethoxy)phenyl)-1,2,3,4-tetrahydroisoquinoline-4-carboxamide] | 0.19 (≈ 0.387 µM)
17 | COCCN1C(=O)c2cc([N+](=O)[O-])ccc2C(C(=O)Nc2cccc(OC)c2)C1c1cccs1 (stereo not drawn) [C3, 2-(2-methoxyethyl)-N-(3-methoxyphenyl)-7-nitro-1-oxo-3-(thiophen-2-yl)-1,2,3,4-tetrahydroisoquinoline-4-carboxamide] | 40.9 (≈ 84.9 µM)

Row | Compound | IC50 [mg/L]
18 | COCCN1C(=O)c2ccccc2C(C(=O)Nc2nc(C)co2)C1c1cccs1 (stereo not drawn) [C154, 2-(2-methoxyethyl)-N-(4-methyloxazol-2-yl)-1-oxo-3-(thiophen-2-yl)-1,2,3,4-tetrahydroisoquinoline-4-carboxamide] | 3.68 (≈ 8.94 µM)
19 | COCCN1C(=O)c2ccccc2C(C(=O)Nc2cccc(OC)c2)C1c1ccc(C)s1 (stereo not drawn) [C12, 2-(2-Methoxyethyl)-N-(3-methoxyphenyl)-3-(5-methylthiophen-2-yl)-1-oxo-1,2,3,4-tetrahydroisoquinoline-4-carboxamide] | 1.2 (≈ 2.66 µM)
20 | COCCn1c(-c2ccco2)c(C(=O)Nc2cccc(OC)c2)c2ccccc2c1=O [C38, 3-(furan-2-yl)-2-(2-methoxyethyl)-N-(3-methoxyphenyl)-1-oxo-1,2-dihydroisoquinoline-4-carboxamide] | 41.4 (≈ 98.9 µM)
21 | COCCN1C(=O)c2ccccc2C(C(=O)Nc2cccc(OC)c2)C1c1c(F)cccc1F (stereo not drawn) [C10, 3-(2,6-Difluorophenyl)-2-(2-methoxyethyl)-N-(3-methoxyphenyl)-1-oxo-1,2,3,4-tetrahydroisoquinoline-4-carboxamide] | 32.1 (≈ 68.9 µM)
22 | COCCN1C(=O)c2ccccc2C(C(=O)Nc2onc(C)c2C)C1c1cccs1 (stereo not drawn) [C220, N-(3,4-dimethylisoxazol-5-yl)-2-(2-methoxyethyl)-1-oxo-3-(thiophen-2-yl)-1,2,3,4-tetrahydroisoquinoline-4-carboxamide] | 2.67 (≈ 6.27 µM)
23 | COCCN1C(=O)c2ccccc2C(C(=O)Nc2cc[nH]n2)C1c1cccs1 (stereo not drawn) [C184, 2-(2-methoxyethyl)-1-oxo-N-(1H-pyrazol-3-yl)-3-(thiophen-2-yl)-1,2,3,4-tetrahydroisoquinoline-4-carboxamide] | 55 (≈ 139 µM)
24 | COCCN1C(=O)c2ccccc2C(C(=O)Nc2ccc(F)c(Cl)c2)C1c1cccs1 (stereo not drawn) [C94, N-(3-chloro-4-fluorophenyl)-2-(2-methoxyethyl)-1-oxo-3-(thiophen-2-yl)-1,2,3,4-tetrahydroisoquinoline-4-carboxamide] | 0.25 (≈ 0.545 µM)
25 | COCCN1C(=O)c2ccccc2C(C(=O)Nc2ccc3c(c2)CCN3C)C1c1cccs1 (stereo not drawn) [C176, 2-(2-methoxyethyl)-N-(1-methylindolin-5-yl)-1-oxo-3-(thiophen-2-yl)-1,2,3,4-tetrahydroisoquinoline-4-carboxamide] | 0.48 (≈ 1.04 µM)
26 | COCCN1C(=O)c2ccccc2C(C(=O)Nc2nc(C)c(C)s2)C1c1cccs1 (stereo not drawn) [C156, N-(4,5-dimethylthiazol-2-yl)-2-(2-methoxyethyl)-1-oxo-3-(thiophen-2-yl)-1,2,3,4-tetrahydroisoquinoline-4-carboxamide] | 37.4 (≈ 84.7 µM)
27 | COc1cccc(NC(=O)C2c3ccccc3C(=O)N(CC3CCCCC3)C2c2cccs2)c1 (stereo not drawn) [C22, 2-(Cyclohexylmethyl)-N-(3-methoxyphenyl)-1-oxo-3-(thiophen-2-yl)-1,2,3,4-tetrahydroisoquinoline-4-carboxamide] | 4.09 (≈ 8.62 µM)
28 | COCCN1C(=O)c2cc(N)ccc2C(C(=O)Nc2cccc(OC)c2)C1c1cccs1 (stereo not drawn) [C147, 7-amino-2-(2-methoxyethyl)-N-(3-methoxyphenyl)-1-oxo-3-(thiophen-2-yl)-1,2,3,4-tetrahydroisoquinoline-4-carboxamide] | 0.14 (≈ 0.31 µM)
29 | CCN1CCC[C@H]1CN1C(=O)c2ccccc2C(C(=O)Nc2cccc(OC)c2)C1c1cccs1 (stereo partly drawn) [C74, 2-(((S)-1-ethylpyrrolidin-2-yl)methyl)-N-(3-methoxyphenyl)-1-oxo-3-(thiophen-2-yl)-1,2,3,4-tetrahydroisoquinoline-4-carboxamide] | 36 (≈ 73.4 µM)
30 | COCCN1C(=O)c2ccccc2C(C(=O)Nc2cccc(-c3cnco3)c2)C1c1cccs1 (stereo not drawn) [C210, 2-(2-methoxyethyl)-N-(3-(oxazol-5-yl)phenyl)-1-oxo-3-(thiophen-2-yl)-1,2,3,4-tetrahydroisoquinoline-4-carboxamide] | 0.072 (≈ 0.152 µM)
31 | COCCN1C(=O)c2ccccc2C(C(=O)Nc2ccc(C(=O)OC)c(OC)c2)C1c1cccs1 (stereo not drawn) [C114, methyl 2-methoxy-4-(2-(2-methoxyethyl)-1-oxo-3-(thiophen-2-yl)-1,2,3,4-tetrahydroisoquinoline-4-carboxamido)benzoate] | 0.47 (≈ 0.95 µM)
32 | CCCCN1C(=O)c2ccccc2C(C(=O)Nc2cccc(OC)c2)C1c1cccs1 (stereo not drawn) [C16, 2-Butyl-N-(3-methoxyphenyl)-1-oxo-3-(thiophen-2-yl)-1,2,3,4-tetrahydroisoquinoline-4-carboxamide] | 1.1 (≈ 2.53 µM)
33 | COCCN1C(=O)c2cc(OC)c(OC)cc2C(C(=O)Nc2cccc(OC)c2)C1c1cccs1 (stereo not drawn) [C75, 6,7-dimethoxy-2-(2-methoxyethyl)-N-(3-methoxyphenyl)-1-oxo-3-(thiophen-2-yl)-1,2,3,4-tetrahydroisoquinoline-4-carboxamide] | 43.1 (≈ 86.9 µM)
